In patent US20240101521A1, “DIAMINOTRIAZINE COMPOUNDS” (BASF SE, priority 2021, published 2024):

What was measured:
Assay in all cases: greenhouse pre-emergence herbicidal test
Assay type in all cases: in vivo
Conditions in all cases: scale 0 to 100
[1] = tested on: Echinochloa crus-galli
Source text: (§1) The culture containers used were plastic flowerpots containing loamy sand with approximately 3.0% of humus as the substrate. The seeds of the test plants were sown separately for each species.
(§2) For the pre-emergence treatment, the active ingredients, which had been suspended or emulsified in water, were applied directly after sowing by means of finely distributing nozzles. The containers were irrigated gently to promote germination and growth and subsequently covered with transparent plastic hoods until the plants had rooted. This cover caused uniform germination of the test plants, unless this had been impaired by the active ingredients. For the post-emergence treatment, the test plants were first grown to a height of 3 to 15 cm, depending on the plant habit, and only then treated with the active ingredients which had been suspended or emulsified in water. For this purpose, the test plants were either sown directly and grown in the same containers, or they were first grown separately as seedlings and transplanted into the test containers a few days prior to treatment.
(§3) Depending on the species, the plants were kept at 10-25° C. or 20-35° C., respectively.
(§4) The test period extended over 2 to 4 weeks. During this time, the plants were tended, and their response to the individual treatments was evaluated.
(§5) Evaluation was carried out using a scale from 0 to 100. 100 means no emergence of the plants, or complete destruction of at least the aerial moieties, and 0 means no damage, or normal course of growth. A moderate herbicidal activity is given at values of at least 60, a good herbicidal activity is given at values of at least 70, and a very good herbicidal activity is given at values of at least 85.
(§6) The plants used in the greenhouse experiments were of the following species: […]

[2] = tested on: Setaria faberi
Source text: as §1, §2, §3, §4, §5, §6

[3] = tested on: Amaranthus retroflexus
Source text: as §1, §2, §3, §4, §5, §6

Compound | herbicidal activity ([1]; pre-emergence, 62 g/ha) [%] | herbicidal activity ([2]; pre-emergence, 62 g/ha) [%] | herbicidal activity ([3]; pre-emergence, 62 g/ha) [%] | herbicidal activity ([1]; pre-emergence, 62,5 g/ha) [%] | herbicidal activity ([2]; pre-emergence, 62,5 g/ha) [%] | herbicidal activity ([3]; pre-emergence, 62,5 g/ha) [%] | also measured
CC#CCOc1c(Br)cc(C)c(F)c1Nc1nc(N)nc(C(C)(C)F)n1 [Example 75] | 100 | 100 | 100 |  |  |  | 
COc1c(Br)cc(C)c(F)c1Nc1nc(N)nc(C(C)(C)F)n1 [Example 73] | 100 | 100 | 100 |  |  |  | 
CC#CCOc1c(Cl)ccc(F)c1Nc1nc(N)nc(C(C)(C)F)n1 [Example 42] |  |  |  |  |  |  | herbicidal activity ([1]; pre-emergence, 31 g/ha): 100%; herbicidal activity ([2]; pre-emergence, 31 g/ha): 100%; herbicidal activity ([3]; pre-emergence, 31 g/ha): 100%
COc1c(Br)cc(Cl)c(F)c1Nc1nc(N)nc(C(C)(C)F)n1 [Example 76] | 100 | 100 | 100 |  |  |  | 
COc1c(Cl)cc(F)c(F)c1Nc1nc(N)nc(C(C)Cl)n1 (stereo not shown) [Example 38] |  |  |  | 100 | 100 | 100 | 
C#CCOc1c(C)ccc(F)c1Nc1nc(N)nc(C(C)(C)F)n1 [Example 71] | 100 | 100 | 100 |  |  |  | 
COc1c(Cl)ccc(F)c1Nc1nc(N)nc(C(C)(F)F)n1 [Example 48] |  |  |  |  |  |  | herbicidal activity ([1]; pre-emergence, 31 g/ha): 70%; herbicidal activity ([2]; pre-emergence, 31 g/ha): 100%; herbicidal activity ([3]; pre-emergence, 31 g/ha): 100%
CCOc1c(Cl)ccc(F)c1Nc1nc(N)nc(C(C)(C)F)n1 [Example 41] |  |  |  | 100 | 100 | 100 | 
COc1c(Cl)ccc(F)c1Nc1nc(N)nc(C(C)F)n1 (stereo not shown) [Example 43] |  |  |  | 100 | 100 | 100 | 
CCOc1c(Cl)cc(F)c(F)c1Nc1nc(N)nc(C(C)(C)F)n1 [Example 23] |  |  |  | 100 | 100 | 100 | 
COc1c(Br)ccc(F)c1Nc1nc(N)nc(C(C)F)n1 (stereo not shown) [Example 44] |  |  |  | 100 | 100 | 100 | 
CC(C)(F)c1nc(N)nc(Nc2c(F)c(Cl)cc(Cl)c2OC(F)F)n1 [Example 93] | 100 | 100 | 100 |  |  |  | 
C#CCOc1c(Br)cc(Cl)c(F)c1Nc1nc(N)nc(C(C)(C)F)n1 [Example 77] | 100 | 100 | 100 |  |  |  | 
C#CCOc1c(Br)cc(C)c(F)c1Nc1nc(N)nc(C(C)(C)F)n1 [Example 74] | 100 | 100 | 100 |  |  |  | 
CCOc1c(Cl)cc(F)c(F)c1Nc1nc(N)nc(C2(F)CCCCC2)n1 [Example 110] |  |  |  | 100 | 85 | 95 | 
COc1c(Br)ccc(F)c1Nc1nc(N)nc(C2(F)CCCC2)n1 [Example 25] |  |  |  |  |  |  | herbicidal activity ([1]; pre-emergence, 250 g/ha): 100%; herbicidal activity ([2]; pre-emergence, 250 g/ha): 100%; herbicidal activity ([3]; pre-emergence, 250 g/ha): 100%
C#CCOc1c(Br)cc(F)c(F)c1Nc1nc(N)nc(C(C)F)n1 (stereo not shown) [Example 89] | 100 | 100 | 100 |  |  |  | 
CCOc1c(Cl)cc(Cl)c(F)c1Nc1nc(N)nc(C(C)(C)F)n1 [Example 83] | 100 | 100 | 100 |  |  |  | 
CC#CCOc1c(Cl)cc(F)c(F)c1Nc1nc(N)nc(C(F)C2CC2)n1 (stereo not shown) [Example 94] | 100 | 100 | 100 |  |  |  | 
C#CCOc1c(Cl)cc(F)c(F)c1Nc1nc(N)nc(C(C)F)n1 (stereo not shown) [Example 91] | 100 | 100 | 100 |  |  |  | 
CC#CC(C)Oc1c(Br)cc(F)c(F)c1Nc1nc(N)nc(C2(F)CCCC2)n1 (stereo not shown) [Example 96] | 70 | 75 |  |  |  |  | 
COc1c(C)ccc(F)c1Nc1nc(N)nc(C(C)(C)F)n1 [Example 69] | 100 | 100 | 100 |  |  |  | 
CCOc1c(Br)ccc(F)c1Nc1nc(N)nc(C(C)(C)F)n1 [Example 45] |  |  |  | 100 | 100 | 100 | 
CC#CCOc1c(Br)cc(Cl)c(F)c1Nc1nc(N)nc(C(C)(C)F)n1 [Example 78] | 100 | 100 | 100 |  |  |  | 

Compound | herbicidal activity ([1]; pre-emergence, 62 g/ha) [%] | herbicidal activity ([2]; pre-emergence, 62 g/ha) [%] | herbicidal activity ([3]; pre-emergence, 62 g/ha) [%] | herbicidal activity ([1]; pre-emergence, 62,5 g/ha) [%] | herbicidal activity ([2]; pre-emergence, 62,5 g/ha) [%] | herbicidal activity ([3]; pre-emergence, 62,5 g/ha) [%] | also measured
COc1c(Cl)cc(Cl)c(F)c1Nc1nc(N)nc(C2(F)CC2)n1 [Example 72] | 100 | 100 | 100 |  |  |  | 
CC#CCOc1c(Cl)cc(F)c(F)c1Nc1nc(N)nc(C(C)(C)OC)n1 [Example 82] | 100 | 100 | 100 |  |  |  | 
CC#CCOc1c(Br)cc(F)c(F)c1Nc1nc(N)nc(C(C)F)n1 (stereo not shown) [Example 90] | 100 | 100 | 100 |  |  |  | 
C#CCOc1c(Cl)cc(F)c(F)c1Nc1nc(N)nc(C(C)(C)OC)n1 [Example 88] | 100 | 100 | 100 |  |  |  | 
CC#CCOc1c(C)ccc(F)c1Nc1nc(N)nc(C(C)(C)F)n1 [Example 70] | 100 | 100 | 100 |  |  |  | 
CC#CCOc1c(Br)ccc(F)c1Nc1nc(N)nc(C(C)(C)F)n1 [Example 46] |  |  |  | 100 | 100 | 100 | 
C#CCOc1c(Cl)cc(F)c(F)c1Nc1nc(N)nc(C(C)(C)F)n1 [Example 28] |  |  |  | 100 | 100 | 100 | 
COCOc1c(Br)ccc(F)c1Nc1nc(N)nc(C(C)(C)F)n1 [Example 26] |  |  |  |  |  |  | herbicidal activity ([1]; pre-emergence, 250 g/ha): 100%; herbicidal activity ([2]; pre-emergence, 250 g/ha): 100%; herbicidal activity ([3]; pre-emergence, 250 g/ha): 100%
CCC#CCOc1c(Br)cc(F)c(F)c1Nc1nc(N)nc(C2(F)CCCC2)n1 [Example 22] |  |  |  | 85 | 100 | 85 | 
C#CCOc1c(C)cc(Br)c(F)c1Nc1nc(N)nc(C(C)(C)F)n1 [Example 67] | 100 | 100 | 100 |  |  |  | 
COc1c(Cl)cc(F)c(F)c1Nc1nc(N)nc(C(F)C2CC2)n1 (stereo not shown) [Example 40] |  |  |  | 100 | 100 | 100 | 
CC#CCOc1c(Cl)cc(F)c(F)c1Nc1nc(N)nc(C(C)F)n1 (stereo not shown) [Example 92] | 100 | 100 | 100 |  |  |  | 
CCC(C)(F)c1nc(N)nc(Nc2c(F)c(Cl)cc(Cl)c2OC)n1 (stereo not shown) [Example 62] |  |  |  |  |  |  | herbicidal activity ([1]; pre-emergence, 31 g/ha): 100%; herbicidal activity ([2]; pre-emergence, 31 g/ha): 100%; herbicidal activity ([3]; pre-emergence, 31 g/ha): 100%
CC#CC(C)Oc1c(Br)cc(F)c(F)c1Nc1nc(N)nc(C(C)(C)F)n1 (stereo not shown) [Example 95] | 100 | 100 | 100 |  |  |  | 
C#CCOc1c(Br)cc(F)c(F)c1Nc1nc(N)nc(C2(F)CCCC2)n1 [Example 27] |  |  |  |  |  |  | herbicidal activity ([2]; pre-emergence, 31 g/ha): 100%; herbicidal activity ([3]; pre-emergence, 31 g/ha): 100%
C#CCOc1c(Cl)cc(F)c(F)c1Nc1nc(N)nc(C(C)(F)CCl)n1 (stereo not shown) [Example 86] | 100 | 100 | 100 |  |  |  | 
CCC#CCOc1c(Cl)cc(F)c(F)c1Nc1nc(N)nc(C(C)(C)F)n1 [Example 24] |  |  |  | 100 | 100 | 100 | 
CC#CCOc1c(C)cc(Br)c(F)c1Nc1nc(N)nc(C(C)(C)F)n1 [Example 68] | 100 | 100 | 100 |  |  |  | 
C#CCOc1c(Cl)cc(F)c(F)c1Nc1nc(N)nc(C2(F)CCCCC2)n1 [Example 112] |  |  |  | 95 | 90 | 95 | 
CC(C)(F)c1nc(N)nc(Nc2c(F)c(F)cc(Cl)c2OC(F)F)n1 [Example 80] | 100 | 100 | 100 |  |  |  | 
COc1c(Cl)cc(F)c(F)c1Nc1nc(N)nc(C(C)F)n1 (stereo not shown) [Example 39] |  |  |  | 100 | 100 | 100 | 
C#CCOc1c(Br)cc(F)c(F)c1Nc1nc(N)nc(C(C)(C)OC)n1 [Example 87] | 100 | 100 | 100 |  |  |  | 
CCOc1c(Br)cc(F)c(F)c1Nc1nc(N)nc(C2(F)CCCC2)n1 [Example 21] |  |  |  | 100 | 100 | 95 | 
CCOc1c(Br)cc(Br)c(F)c1Nc1nc(N)nc(C(C)(C)F)n1 [Example 66] | 100 | 100 | 100 |  |  |  | 
